In ChEMBL document CHEMBL1124522, “Synthesis and antitumor activity of 5-deaza-5,6,7,8-tetrahydrofolic acid and its N10-substituted analogues” (J Med Chem, 1989):
Where “and” joins values, the source holds several entries; their conditions need not be identical. Equal entries are not always repeated.

Tests used:
CCRF-CEM = assay: Compound was tested for its antitumor activity against human lymphoblastic leukemic cells(CCRF-CEM) in vitro; assay type: functional, cell-based; conditions: Homo sapiens, CCRF-CEM
[1] = target: T1, Folylpolyglutamate synthase, mitochondrial (Mus musculus) (UniProt P48760); assay: Apparent catalytic rate folyl-poly-glutamate synthetase
T1 sequence (whole entry): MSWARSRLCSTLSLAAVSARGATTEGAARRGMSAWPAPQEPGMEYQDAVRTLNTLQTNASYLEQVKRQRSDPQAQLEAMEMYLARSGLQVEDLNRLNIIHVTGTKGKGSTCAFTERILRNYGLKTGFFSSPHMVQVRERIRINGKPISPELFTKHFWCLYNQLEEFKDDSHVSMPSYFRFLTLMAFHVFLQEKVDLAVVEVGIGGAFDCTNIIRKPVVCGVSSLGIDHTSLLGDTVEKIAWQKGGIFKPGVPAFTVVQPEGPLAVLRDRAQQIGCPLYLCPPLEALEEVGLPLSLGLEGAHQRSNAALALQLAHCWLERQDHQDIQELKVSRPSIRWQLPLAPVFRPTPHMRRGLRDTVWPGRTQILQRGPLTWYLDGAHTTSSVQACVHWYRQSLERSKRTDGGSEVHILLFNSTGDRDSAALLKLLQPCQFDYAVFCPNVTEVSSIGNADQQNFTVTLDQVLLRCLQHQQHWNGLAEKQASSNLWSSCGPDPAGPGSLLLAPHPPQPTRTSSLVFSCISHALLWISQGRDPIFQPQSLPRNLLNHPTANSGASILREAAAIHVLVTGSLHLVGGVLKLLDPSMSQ

[2] = target: T1, Folylpolyglutamate synthase, mitochondrial (Mus musculus); assay: First order catalytic rate folyl-poly-glutamate synthetase
[3] = target: T1, Folylpolyglutamate synthase, mitochondrial (Mus musculus); assay: Apparent catalytic rate constants (Km) owas determined from mouse liver Folyl-polyglutamate synthase
[4] = target: T1, Folylpolyglutamate synthase, mitochondrial (Mus musculus); assay: First order catalytic rate constants (k) was determined from mouse liver Folyl-polyglutamate synthase
6C3HED [5] = assay: Percent inhibition against 6C3HED lymphosarcoma at dose 100 mg/kg in C3H mice; assay type: functional, Mus musculus
6C3HED [6] = assay: Percent inhibition against 6C3HED lymphosarcoma at dose 12.5 mg/kg in C3H mice; assay type: functional, Mus musculus
6C3HED [7] = assay: Percent inhibition against 6C3HED lymphosarcoma at dose 200 mg/kg in C3H mice; assay type: functional; conditions: Mus musculus
6C3HED [8] = assay: Percent inhibition against 6C3HED lymphosarcoma at dose 25 mg/kg in C3H mice; assay type: functional, Mus musculus
6C3HED [9] = assay: Percent inhibition against 6C3HED lymphosarcoma at dose 50 mg/kg in C3H mice; assay type: functional, Mus musculus
[10] = In vivo anti tumor activity (toxic/total) at dose 50 mg/kg in C3H mice with transplantable murine solid tumor 6C3HED lymphosarcoma, doses administered intraperitoneally on days 1,3,5,7 and 9;Compound was tested on 10 mice.; assay type: functional, Mus musculus; conditions: route intraperitoneal
[11] = In vivo antitumor activity (toxic/total) at dose 100 mg/kg in C3H mice with transplantable murine solid tumor C3H mammary adenocarcinoma, doses administered intraperitoneally on days 1,3,5,7 and 9;Compound was tested on 10 mice.; assay type: functional, Mus musculus; conditions: route intraperitoneal
[12] = In vivo antitumor activity (toxic/total) at dose 12.5 mg/kg in C3H mice with transplantable murine solid tumor C3H mammary adenocarcinoma, doses administered intraperitoneally on days 1,3,5,7 and 9;Compound was tested on 10 mice.; assay type: functional, Mus musculus; conditions: route intraperitoneal
[13] = In vivo antitumor activity (toxic/total) at dose 12.5 mg/kg in C3H mice with transplantable murine solid tumor C3H mammary adenocarcinoma; Compound was tested on 10 mice.; assay type: functional, Mus musculus
[14] = In vivo antitumor activity (toxic/total) at dose 25 mg/kg in C3H mice with transplantable murine solid tumor C3H mammary adenocarcinoma, doses administered intraperitoneally on days 1,3,5,7 and 9;Compound was tested on 10 mice.; assay type: functional, Mus musculus; conditions: route intraperitoneal
[15] = In vivo antitumor activity (toxic/total) at dose 25 mg/kg in C3H mice with transplantable murine solid tumor C3H mammary adenocarcinoma; Compound was tested on 10 mice.; assay type: functional, Mus musculus
[16] = In vivo antitumor activity (toxic/total) at dose 50 mg/kg in C3H mice with transplantable murine solid tumor C3H mammary adenocarcinoma, doses administered intraperitoneally on days 1,3,5,7 and 9;Compound was tested on 10 mice.; assay type: functional, Mus musculus; conditions: route intraperitoneal
[17] = In vivo antitumor activity (toxic/total) at dose 50 mg/kg in C3H mice with transplantable murine solid tumor C3H mammary adenocarcinoma; Compound was tested on 10 mice.; assay type: functional, Mus musculus
[18] = In vivo antitumor activity (toxic/total) at dose 6.25 mg/kg in C3H mice with transplantable murine solid tumor C3H mammary adenocarcinoma, doses administered intraperitoneally on days 1,3,5,7 and 9;Compound was tested on 10 mice.; assay type: functional, Mus musculus; conditions: route intraperitoneal
[19] = In vivo antitumor activity (toxic/total) at dose 6.25 mg/kg in C3H mice with transplantable murine solid tumor C3H mammary adenocarcinoma; Compound was tested on 10 mice.; assay type: functional, Mus musculus
[20] = In vivo antitumor avctivity (Toxic/total) at dose 100 mg/kg in C3H mice with transplantable murine solid tumor 6C3HED lymphosarcoma; Compound was tested on 10 mice.; assay type: functional, Mus musculus
[21] = In vivo antitumor avctivity (Toxic/total) at dose 12.5 mg/kg in C3H mice with transplantable murine solid tumor 6C3HED lymphosarcoma; Compound was tested on 10 mice.; assay type: functional, Mus musculus
[22] = In vivo antitumor avctivity (Toxic/total) at dose 25 mg/kg in C3H mice with transplantable murine solid tumor 6C3HED lymphosarcoma; Compound was tested on 10 mice.; assay type: functional, Mus musculus
[23] = In vivo antitumor avctivity (Toxic/total) at dose 50 mg/kg in C3H mice with transplantable murine solid tumor 6C3HED lymphosarcoma; Compound was tested on 10 mice.; assay type: functional, Mus musculus
[24] = In vivo antitumor avctivity (Toxic/total) at dose 6 mg/kg in C3H mice with transplantable murine solid tumor 6C3HED lymphosarcoma; Compound was tested on 10 mice.; assay type: functional, Mus musculus
[25] = In vivo anti tumor activity (toxic/total) at dose 200 mg/kg in C3H mice with transplantable murine solid tumor 6C3HED lymphosarcoma, doses administered intraperitoneally on days 1,3,5,7 and 9;Compound was tested on 10 mice.; assay type: functional, Mus musculus; conditions: route intraperitoneal
[26] = In vivo anti tumor activity (toxic/total) at dose 25 mg/kg in C3H mice with transplantable murine solid tumor 6C3HED lymphosarcoma, doses administered intraperitoneally on days 1,3,5,7 and 9;Compound was tested on 10 mice.; assay type: functional, Mus musculus; conditions: route intraperitoneal
[27] = Percent inhibition against C3H mammary adenocarcinoma at dose 100 mg/kg administered ip on days 1,3,5,7 and 9 in C3H mice; assay type: functional; conditions: Mus musculus, route intraperitoneal
[28] = Percent inhibition against C3H mammary adenocarcinoma at dose 12.5 mg/kg administered ip on days 1,3,5,7 and 9 in C3H mice; assay type: functional; conditions: Mus musculus, route intraperitoneal
[29] = Percent inhibition against C3H mammary adenocarcinoma at dose 25 mg/kg administered ip on days 1,3,5,7 and 9 in C3H mice; assay type: functional; conditions: Mus musculus, route intraperitoneal
[30] = Percent inhibition against C3H mammary adenocarcinoma at dose 25 mg/kg in C3H mice;Compound was toxic.; assay type: ADME, organism-based; design: dose 25 mg/kg; conditions: mouse, in vivo
[31] = Percent inhibition against C3H mammary adenocarcinoma at dose 50 mg/kg in C3H mice;Compound was toxic.; assay type: ADME, organism-based; design: dose 50 mg/kg; conditions: mouse, in vivo
[32] = Percent inhibition against C3H mammary adenocarcinoma at dose 6.25 mg/kg administered ip on days 1,3,5,7 and 9 in C3H mice; assay type: functional; conditions: Mus musculus, route intraperitoneal
[33] = Percent inhibition against C3H mammary adenocarcinoma at dose 6.25 mg/kg in C3H mice; assay type: functional; conditions: Mus musculus
[34] = In vivo anti tumor activity (toxic/total) at dose 100 mg/kg in C3H mice with transplantable murine solid tumor 6C3HED lymphosarcoma, doses administered intraperitoneally on days 1,3,5,7 and 9;Compound was tested on 9 mice.; assay type: functional, Mus musculus; conditions: route intraperitoneal
[35] = In vivo anti tumor activity (toxic/total) at dose 12.5 mg/kg in C3H mice with transplantable murine solid tumor 6C3HED lymphosarcoma, doses administered intraperitoneally on days 1,3,5,7 and 9;Compound was tested on 10 mice.; assay type: functional, Mus musculus; conditions: route intraperitoneal
6C3HED [36] = assay: Percent inhibition against 6C3HED lymphosarcoma at dose 6 mg/kg in C3H mice; assay type: functional; conditions: Mus musculus
[37] = Percent inhibition against C3H mammary adenocarcinoma at dose 50 mg/kg administered ip on days 1,3,5,7 and 9 in C3H mice; assay type: functional; conditions: Mus musculus, route intraperitoneal
[38] = target: T1, Folylpolyglutamate synthase, mitochondrial (Mus musculus); assay: Apparent catalytic rate constants (Km) was determined from mouse liver Folyl-polyglutamate synthase

CN(CC1CNc2nc(N)nc(O)c2C1)c1ccc(C(=O)N[C@@H](CCC(=O)O)C(=O)O)cc1 (stereo partly drawn)
IC50 (CCRF-CEM): 40 nM

CC(=O)N(CC1CNc2nc(N)nc(O)c2C1)c1ccc(C(=O)N[C@@H](CCC(=O)O)C(=O)O)cc1 (stereo partly drawn)
IC50 (CCRF-CEM): 600 nM

Nc1nc(=O)c2nc(CNc3ccc(C(=O)N[C@@H](CCC(=O)O)C(=O)O)cc3)cnc2[nH]1
Km app [1]: 140 µM
k [2]: 1

Nc1nc(N)c2nc(CNc3ccc(C(=O)N[C@@H](CCC(=O)O)C(=O)O)cc3)cnc2n1
Km app [3]: 21 µM
k [4]: 10.1

Nc1nc(O)c2c(n1)NCC(CNc1ccc(C(=O)N[C@@H](CCC(=O)O)C(=O)O)cc1)C2 (stereo in doubt; 7a) [listing 1 of 2 here]
Inhibition (6C3HED [5]; 100 mg/kg): 93%
inhibition in vivo at 100 mg/kg (6C3HED [5]; Mus musculus, 6C3HED): 100%
Inhibition (6C3HED [6]): 100% and 34%
inhibition in vivo at 200 mg/kg (6C3HED [7]): 98%
Inhibition (6C3HED [8]): 100% and 51%
Inhibition (6C3HED [9]): 100% and 74%
tox/total [10]: 0
tox/total [11]: 0
tox/total [12]: 0
tox/total [13]: 10
tox/total [14]: 0
tox/total [15]: 10
tox/total [16]: 0
tox/total [17]: 10
tox/total [18]: 0
tox/total [19]: 3
tox/total [20]: 9
tox/total [21]: 1
tox/total [22]: 3
tox/total [23]: 6
tox/total [24]: 0
IC50 (CCRF-CEM): 10 nM
tox/total [25]: 3
tox/total [26]: 0
inhibition in vivo at 100 mg/kg [27]: 94%
inhibition in vivo at 12.5 mg/kg [28]: 61%
inhibition in vivo at 25 mg/kg [29]: 64%
Inhibition [30]: Toxic
Inhibition [31]: Toxic
inhibition in vivo at 6.25 mg/kg [32]: 50%
inhibition in vivo at 6.25 mg/kg [33]: 96%
tox/total [34]: 0
tox/total [35]: 0
inhibition in vivo at 6 mg/kg (6C3HED [36]): 77%
inhibition in vivo at 50 mg/kg [37]: 81%

Nc1nc(O)c2c(n1)NCC(CNc1ccc(C(=O)N[C@@H](CCC(=O)O)C(=O)O)cc1)C2 (stereo in doubt; 7a) [listing 2 of 2 here]
Km app [38]: 1.06 µM
k [4]: 170
